According to patent publication US7439207B2, “2,6 substituted pyridine-3-carbonyl derivatives serving as plant protection agents having herbicidal action” (Bayer CropScience AG, priority 2002, dated 2008):

Tests used:
[1] = logP determination by HPLC on reversed-phase column (C 18), EEC Directive 79/831 Annex V.A8; assay type: physicochemical; settings: reversed-phase HPLC column (C 18); printed in text without mark a) or b)
Procedure: The logP values given in the table were determined in accordance with EEC Directive 79/831 Annex V.A8 by HPLC (High Performance Liquid Chromatography) using a reversed-phase column (C 18). Temperature: 43° C. (a) Mobile phases for the determination in the acidic range: 0.1% aqueous phosphoric acid, acetonitrile; linear gradient from 10% acetonitrile to 90% acetonitrile—corresponding measurement results in Table 1 are marked ^a). (b) Mobile phases for the determination in the neutral range: 0.01 molar aqueous phosphate buffer solution, acetonitrile; linear gradient from 10% acetonitrile to 90% acetonitrile—corresponding measurement results in Table 1 are marked ^b). Calibration was carried out using unbranched alkan-2-ones (having 3 to 16 carbon atoms) with known logP values (determination of the logP values by the retention times using linear interpolation between two successive alkanones).

weeds [2] = test: Pre-emergence test (Example A), activity against weeds; assay type: in vivo; settings: soil sprayed 24 hours after sowing, rated after three weeks
Procedure: Pre-Emergence Test • Solvent: 5 parts by weight of acetone • Emulsifier: 1 part by weight of alkylaryl polyglycol ether
(§1) To produce a suitable preparation of active compound, 1 part by weight of active compound is mixed with the stated amount of solvent, the stated amount of emulsifier is added and the concentrate is diluted with water to the desired concentration.
Seeds of the test plants are sown in normal soil. After 24 hours, the soil is sprayed with the preparation of active compound such that the particular amount of active compound desired is supplied per unit area. The concentration of active compound in the spray liquor is chosen such that the particular amount of active compound desired is applied in 1000 litres of water per hectare.
After three weeks, the degree of damage to the plants is rated in % damage in comparison to the development of the untreated control. The figures denote: • 0%=no effect (like untreated control) • 100%=total destruction

weeds [3] = test: Post-emergence test (Example B), activity against weeds; assay type: in vivo; settings: test plants of 5-15 cm sprayed, rated after three weeks
Procedure: Post-Emergence Test • Solvent: 5 parts by weight of acetone • Emulsifier: 1 part by weight of alkylaryl polyglycol ether
as §1
Test plants of a height of 5-15 cm are sprayed with the preparation of active compound such that the particular amounts of active compound desired are applied per unit area. The concentration of the spray liquor is chosen such that the particular amounts of active compound desired are applied in 1 000 1 l of water/ha.
After three weeks, the degree of damage to the plants is rated in % damage in comparison to development of the untreated control.
The figures denote: • 0%=no effect (like untreated control) • 100%=total destruction

| chromatographic logP [1] | Structure (SMILES) | activity against weeds (weeds [2]) | activity against weeds (weeds [3]) |
| --- | --- | --- | --- |
| 2.14 | CN1CCN(Cc2nc(C(F)(F)F)ccc2C(=O)C2C(=O)CCCC2=O)C1=O [Example 1, 2-[2-(3-methyl-2-oxoimidazolidin-1-ylmethyl)-6-trifluoromethylpyridine-3-carbonyl]cyclohexane-1,3-dione] | strong activity | strong activity |
| 1.62 | CN1CCN(Cc2nc(C(F)(F)F)ccc2C(=O)O)C1=O [Example II-1, 6-trifluoromethyl-2-(3-methyl-2-oxoimidazolidin-1-ylmethyl)nicotinic acid] | – | – |
